# Source: US20260297060A1, “COMPOUNDS FOR THE DEGRADATION OF MUTANT BRAF” (C4 THERAPEUTICS, INC., priority 2023, published 2026)
# Like-named read-outs stand apart in the source and are kept apart here.
# Assays:
# [1] = test system: A375-NRAS^Q61K cells; test: CTGlo Cell Viability Assay, A375-NRAS^Q61K (A375.11) cells, 96 hours; format: cell-based, human; settings: A375.11 (A375-NRAS^Q61K) cells; for CTGlo A375.11 96 hours Emax / Emax: lowest % viability achieved; for Emax: Homo sapiens, 96 h
# Method in brief: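 A375 cells carrying BRAF V600E and NRAS Q61K were seeded at 250 cells/well with a 10-point half-log dose series (max 10 μM final). After 96 h at 37 °C, viability was read as ATP luminescence (CellTiter-Glo), background-subtracted and normalized to DMSO (100%). GI50 from 4-parameter fit; Emax is the lowest % viability.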
# [2] = target: T1, BRAF V600E (Homo sapiens, UniProt P15056+Q96SW2, V600E); test: BRAF V600E HiBiT Degradation Assay; format: cell-based
# T1 construct: knock-in of the HiBiT tag to the endogenous BRAF V600E locus; host or cells: A375.10 (A375 clonal line, CRISPR HiBiT knock-in at the endogenous BRAF V600E locus)
# T1 sequence (P15056 whole entry V600E): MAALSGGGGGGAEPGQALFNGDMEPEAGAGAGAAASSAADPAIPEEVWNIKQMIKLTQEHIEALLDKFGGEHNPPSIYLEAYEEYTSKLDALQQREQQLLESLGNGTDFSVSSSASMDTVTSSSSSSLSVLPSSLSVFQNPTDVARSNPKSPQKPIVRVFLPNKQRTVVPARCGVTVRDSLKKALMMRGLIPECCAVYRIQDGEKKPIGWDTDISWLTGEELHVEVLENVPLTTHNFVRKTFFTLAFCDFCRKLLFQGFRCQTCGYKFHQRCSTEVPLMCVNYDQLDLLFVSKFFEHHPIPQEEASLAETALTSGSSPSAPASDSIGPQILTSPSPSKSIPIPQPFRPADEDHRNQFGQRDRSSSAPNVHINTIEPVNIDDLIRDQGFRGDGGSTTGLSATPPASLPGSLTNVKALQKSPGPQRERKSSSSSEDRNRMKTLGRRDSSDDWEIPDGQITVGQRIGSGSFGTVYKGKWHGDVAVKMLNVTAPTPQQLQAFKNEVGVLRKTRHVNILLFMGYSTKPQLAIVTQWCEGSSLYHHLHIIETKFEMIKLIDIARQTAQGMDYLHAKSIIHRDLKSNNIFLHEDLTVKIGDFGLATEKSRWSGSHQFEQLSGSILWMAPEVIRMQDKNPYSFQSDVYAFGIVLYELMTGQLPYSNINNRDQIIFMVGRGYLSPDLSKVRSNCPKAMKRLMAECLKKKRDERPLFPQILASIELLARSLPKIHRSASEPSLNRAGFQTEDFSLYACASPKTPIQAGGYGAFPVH
# T1 sequence (Q96SW2 whole entry): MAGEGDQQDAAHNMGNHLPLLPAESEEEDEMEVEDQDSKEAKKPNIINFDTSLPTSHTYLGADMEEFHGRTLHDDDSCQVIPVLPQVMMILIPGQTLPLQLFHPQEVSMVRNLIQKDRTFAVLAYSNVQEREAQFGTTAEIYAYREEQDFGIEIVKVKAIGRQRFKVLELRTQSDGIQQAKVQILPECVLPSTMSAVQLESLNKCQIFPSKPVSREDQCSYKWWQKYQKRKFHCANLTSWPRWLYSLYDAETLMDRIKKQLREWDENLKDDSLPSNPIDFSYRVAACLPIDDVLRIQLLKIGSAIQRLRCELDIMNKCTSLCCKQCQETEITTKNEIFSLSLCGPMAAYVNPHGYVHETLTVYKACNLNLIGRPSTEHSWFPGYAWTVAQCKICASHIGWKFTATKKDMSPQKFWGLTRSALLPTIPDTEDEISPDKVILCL
# T1 sequence (Q16531 whole entry partner): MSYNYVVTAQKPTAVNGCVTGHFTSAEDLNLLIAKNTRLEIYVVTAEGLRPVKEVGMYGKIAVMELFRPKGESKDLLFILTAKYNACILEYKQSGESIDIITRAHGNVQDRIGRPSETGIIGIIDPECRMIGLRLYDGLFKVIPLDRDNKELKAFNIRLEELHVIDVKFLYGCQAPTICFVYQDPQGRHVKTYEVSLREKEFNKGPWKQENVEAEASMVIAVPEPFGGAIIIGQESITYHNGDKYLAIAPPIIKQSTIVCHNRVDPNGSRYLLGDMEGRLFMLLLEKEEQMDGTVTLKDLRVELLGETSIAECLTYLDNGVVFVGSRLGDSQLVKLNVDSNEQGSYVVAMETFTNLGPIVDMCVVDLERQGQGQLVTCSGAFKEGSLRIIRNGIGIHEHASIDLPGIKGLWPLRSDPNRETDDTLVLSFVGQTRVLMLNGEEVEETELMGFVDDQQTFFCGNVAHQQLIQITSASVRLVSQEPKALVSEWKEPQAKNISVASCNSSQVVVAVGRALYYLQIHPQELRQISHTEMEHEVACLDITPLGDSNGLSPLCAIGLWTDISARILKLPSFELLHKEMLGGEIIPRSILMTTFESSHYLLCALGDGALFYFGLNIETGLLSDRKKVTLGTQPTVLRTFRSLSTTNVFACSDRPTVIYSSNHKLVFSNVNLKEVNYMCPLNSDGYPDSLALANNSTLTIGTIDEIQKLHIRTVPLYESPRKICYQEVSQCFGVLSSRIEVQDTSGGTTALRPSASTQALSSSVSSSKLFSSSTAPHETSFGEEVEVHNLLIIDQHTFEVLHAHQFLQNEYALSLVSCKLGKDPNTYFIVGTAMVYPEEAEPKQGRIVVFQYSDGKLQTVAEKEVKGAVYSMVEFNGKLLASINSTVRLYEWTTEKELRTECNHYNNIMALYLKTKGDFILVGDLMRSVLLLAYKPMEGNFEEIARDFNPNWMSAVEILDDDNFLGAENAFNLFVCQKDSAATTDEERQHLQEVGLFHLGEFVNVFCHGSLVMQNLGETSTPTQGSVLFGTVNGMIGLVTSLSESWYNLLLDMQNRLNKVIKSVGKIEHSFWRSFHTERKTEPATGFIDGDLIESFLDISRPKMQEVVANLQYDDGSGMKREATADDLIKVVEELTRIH
# Method in brief: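 Endogenous HiBiT knock-in on BRAF V600E in A375 cells (clone A375.10); 11-point half-log series, top 10 μM, 2, 6 or 24 h at 37° C. Lytic HiBiT luminescence, background-subtracted, normalized to DMSO; 4-parameter fit gives DC50, Emax (residual protein) and IP (inflection point).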
# [3] = A375.10 cells, BRAF V600E, 2 hours, inflection point, read-out: HiBiT-Degradation A375.10 BRAF 2 hours IP
# [4] = A375.10 cells, BRAF V600E, 2 hours, read-out: HiBiT-Degradation A375.10 BRAF 2 hours DC50
# [5] = A375.10 cells, BRAF V600E, 2 hours, residual protein remaining
# [6] = A375.10 cells, BRAF V600E, 6 hours, inflection point, read-out: HiBiT-Degradation A375.10 BRAF 6 hours IP
# [7] = A375.10 cells, BRAF V600E, 6 hours, read-out: HiBiT-Degradation A375.10 BRAF 6 hours DC50
# [8] = A375.10 cells, BRAF V600E, 6 hours, residual protein remaining
# [9] = A375.10 cells, HiBiT, BRAF V600E, 24 hours
# [10] = A375.10 cells, HiBiT, BRAF V600E, 24 hours, read-out: HiBiT-Degradation A375.10 BRAF 24 hours DC50
# [11] = A375.10 cells, HiBiT, BRAF V600E, 24 hours, read-out: HiBiT-Degradation A375.10 BRAF 24 hours IP
# [12] = A375.10 cells, BRAF V600E, 2 hours, residual protein remaining, read-out: HiBiT-Degradation A375.10 BRAF 2 hours Emax
Structure (SMILES),GI50 [1] [nM],"DC50 [2, 3] [nM]","DC50 [2, 4] [nM]","HiBiT-Degradation A375.10 BRAF 2 hours Emax [2, 5]","DC50 [2, 6] [nM]","DC50 [2, 7] [nM]","HiBiT-Degradation A375.10 BRAF 6 hours Emax [2, 8]","HiBiT-Degradation A375.10 BRAF 24 hours Emax [2, 9]","DC50 [2, 10] [nM]","DC50 [2, 11] [nM]","Emax [2, 12] [%]","Emax ([2]; A375.10 cells, BRAF V600E, 6 hours, residual protein remaining, read-out: HiBiT-Degradation A375.10 BRAF 6 hours Emax) [%]","Emax ([2]; A375.10 cells, HiBiT, BRAF V600E, 24 hours, read-out: HiBiT-Degradation A375.10 BRAF 24 hours Emax) [%]",HiBiT-Degradation A375.10 BRAF 2 hours Emax [2],CTGlo A375.11 96 hours Emax [1],Emax [1] [%]
"CCN(C)S(=O)(=O)Nc1ccc(F)c(Oc2ccc3ncn([C@H]4COC5(CCN(C6CC(c7ccc(NC8CCC(=O)NC8=O)cc7F)C6)CC5)C4)c(=O)c3c2)c1C#N (single isomer, unassigned) [Compound 63]",< 1000,< 1000,< 1000,*** (<=50%),< 1000,< 1000,*** (<=50%),*** (<=50%),< 1000,< 1000,–,–,–,–,*** (<=50%),–
"CN(CCO)S(=O)(=O)Nc1ccc(F)c(Oc2ccc3ncn(C4CC5(CCN(C6CCC(c7ccc(NC8CCC(=O)NC8=O)cc7F)CC6)CC5)C4)c(=O)c3c2)c1C#N (single isomer, unassigned) [Compound 80, 6-[2-cyano-6-fluoro-3-[[2-hydroxyethyl(methyl)sulfamoyl]amino]phenoxy]-3-[7-[4-[4-[(2,6-dioxo-3-piperidyl)amino]-2-fluoro-phenyl]cyclohexyl]-7-azaspiro[3.5]nonan-2-yl]-4-oxo-quinazoline]",> 10000,< 1000,> 10000,** (<90% and >50%),–,–,–,–,–,–,–,–,–,–,** (<90% and >50%),–
"CO[C@@H]1CCN(S(=O)(=O)Nc2ccc(F)c(Oc3ccc4ncn(C5CC6(CCN(C7CCC(c8cc9c(cc8F)c(N8CCC(=O)NC8=O)nn9C)CC7)CC6)C5)c(=O)c4c3)c2C#N)C1 (single isomer, unassigned) [Compound 102]",< 1000,< 1000,< 1000,*** (<=50%),< 1000,< 1000,*** (<=50%),*** (<=50%),< 1000,< 1000,–,–,–,–,*** (<=50%),–
"CO[C@H]1CCN(S(=O)(=O)Nc2ccc(F)c(Oc3ccc4ncn(C5CC6(CCN(C7CCC(c8cc9c(cc8F)c(N8CCC(=O)NC8=O)nn9C)CC7)CC6)C5)c(=O)c4c3)c2C#N)C1 (single isomer, unassigned) [Compound 104]",1000 to 10000,< 1000,< 1000,*** (<=50%),< 1000,< 1000,*** (<=50%),*** (<=50%),< 1000,< 1000,–,–,–,–,** (<90% and >50%),–
"CCN(C)S(=O)(=O)Nc1ccc(F)c(Oc2ccc3ncc(OCC4CCN(C5CCC(c6ccc(NC7CCC(=O)NC7=O)cc6F)CC5)CC4)nc3c2)c1C#N (single isomer, unassigned) [Compound 116, 7-[2-cyano-3-[[ethyl(methyl)sulfamoyl]amino]-6-fluoro-phenoxy]-2-[[1-[4-[4-[(2,6-dioxo-3-piperidyl)amino]-2-fluoro-phenyl]cyclohexyl]-4-piperidyl]methoxy]quinoxaline]",> 10000,< 1000,1000 to 10000,–,–,–,–,–,–,–,50 to 90,–,–,–,–,50 to 90

# Second part, led by results:
GI50 [1] [nM],"DC50 [2, 3] [nM]","DC50 [2, 4] [nM]","HiBiT-Degradation A375.10 BRAF 2 hours Emax [2, 5]","DC50 [2, 6] [nM]","DC50 [2, 7] [nM]","HiBiT-Degradation A375.10 BRAF 6 hours Emax [2, 8]","HiBiT-Degradation A375.10 BRAF 24 hours Emax [2, 9]","DC50 [2, 10] [nM]","DC50 [2, 11] [nM]","Emax [2, 12] [%]","Emax ([2]; A375.10 cells, BRAF V600E, 6 hours, residual protein remaining, read-out: HiBiT-Degradation A375.10 BRAF 6 hours Emax) [%]","Emax ([2]; A375.10 cells, HiBiT, BRAF V600E, 24 hours, read-out: HiBiT-Degradation A375.10 BRAF 24 hours Emax) [%]",HiBiT-Degradation A375.10 BRAF 2 hours Emax [2],Structure (SMILES),CTGlo A375.11 96 hours Emax [1],Emax [1] [%]
> 10000,< 1000,1000 to 10000,** (<90% and >50%),–,–,–,–,–,–,–,–,–,–,"CCN(C)S(=O)(=O)Nc1ccc(F)c(Nc2ccc3ncn([C@H]4COC5(CCN(C6CCC(c7cc8c(cc7F)c(N7CCC(=O)NC7=O)nn8C)CC6)CC5)C4)c(=O)c3c2)c1C#N (single isomer, unassigned) [Compound 65]",** (<90% and >50%),–
> 10000,< 1000,< 1000,–,–,–,–,–,–,–,< 50,–,–,–,"CCN(C)S(=O)(=O)Nc1ccc(F)c(Nc2ccc3ncn([C@@H]4COC5(CCN(C6CCC(c7cc8c(cc7F)c(N7CCC(=O)NC7=O)nn8C)CC6)CC5)C4)c(=O)c3c2F)c1C#N (single isomer, unassigned) [Compound 68]",–,< 50
< 1000,< 1000,< 1000,*** (<=50%),< 1000,< 1000,–,–,< 1000,< 1000,–,< 50,< 50,–,"CCN(C)S(=O)(=O)Nc1ccc(F)c(Nc2ccc3ncn([C@@H]4COC5(CCN(C6CCC(c7cc8c(cc7F)c(N7CCC(=O)NC7=O)nn8C)CC6)CC5)C4)c(=O)c3c2F)c1C#N (single isomer, unassigned) [Compound 69]",*** (<=50%),–
1000 to 10000,< 1000,1000 to 10000,** (<90% and >50%),< 1000,< 1000,*** (<=50%),*** (<=50%),< 1000,< 1000,–,–,–,–,"CN(CCO)S(=O)(=O)Nc1ccc(F)c(Oc2ccc3ncn(C4CC5(CCN(C6CCC(c7cc8c(cc7F)c(N7CCC(=O)NC7=O)nn8C)CC6)CC5)C4)c(=O)c3c2)c1C#N (single isomer, unassigned) [Compound 82, 6-[2-cyano-6-fluoro-3-[[2-hydroxyethyl(methyl)sulfamoyl]amino]phenoxy]-3-[7-[4-[3-(2,4-dioxohexahydropyrimidin-1-yl)-5-fluoro-1-methyl-indazol-6-yl]cyclohexyl]-7-azaspiro[3.5]nonan-2-yl]-4-oxo-quinazoline]",** (<90% and >50%),–
1000 to 10000,< 1000,< 1000,–,< 1000,< 1000,*** (<=50%),*** (<=50%),< 1000,< 1000,–,–,–,*** (<=50%),"CCN(C)S(=O)(=O)Nc1ccc(F)c(Oc2ccc3ncn(C4CC5(CCN(C6CCC(c7cc8c(cc7F)c(N7CCC(=O)NC7=O)nn8C)CC6F)CC5)C4)c(=O)c3c2)c1C#N (single isomer, unassigned) [Compound 84, 6-[2-cyano-3-[[ethyl(methyl)sulfamoyl]amino]-6-fluoro-phenoxy]-3-[7-[4-[3-(2,4-dioxohexahydropyrimidin-1-yl)-5-fluoro-1-methyl-indazol-6-yl]-2-fluoro-cyclohexyl]-7-azaspiro[3.5]nonan-2-yl]-4-oxo-quinazoline]",** (<90% and >50%),–
< 1000,< 1000,< 1000,–,< 1000,< 1000,*** (<=50%),*** (<=50%),< 1000,< 1000,–,–,–,*** (<=50%),"Cn1nc(N2CCC(=O)NC2=O)c2cc(F)c(C3CCC(N4CCC5(CC4)CC(n4cnc6ccc(Oc7c(F)ccc(NS(=O)(=O)C8CCCC8)c7C#N)cc6c4=O)C5)CC3)cc21 (single isomer, unassigned) [Compound 94, N-[2-cyano-3-[3-[7-[4-[3-(2,4-dioxohexahydropyrimidin-1-yl)-5-fluoro-1-methyl-indazol-6-yl]cyclohexyl]-7-azaspiro[3.5]nonan-2-yl]-4-oxo-quinazolin-6-yl]oxy-4-fluoro-phenyl]cyclopentanesulfonamide]",*** (<=50%),–
< 1000,< 1000,< 1000,*** (<=50%),< 1000,< 1000,*** (<=50%),*** (<=50%),< 1000,< 1000,–,–,–,–,"CC(C)S(=O)(=O)Nc1ccc(F)c(Oc2ccc3ncn(C4CC5(CCN(C6CCC(c7cc8c(cc7F)c(N7CCC(=O)NC7=O)nn8C)CC6)CC5)C4)c(=O)c3c2)c1C#N (single isomer, unassigned) [Compound 96, N-[2-cyano-3-[3-[7-[4-[3-(2,4-dioxohexahydropyrimidin-1-yl)-5-fluoro-1-methyl-indazol-6-yl]cyclohexyl]-7-azaspiro[3.5]nonan-2-yl]-4-oxo-quinazolin-6-yl]oxy-4-fluoro-phenyl]propane-2-sulfonamide]",–,–
